# Assay results as given in patent US12257264B2, “Combination therapy for HIV with adenosine derivative and capsid inhibitors” (Brii Biosciences, Inc., priority 2021, dated 2025).
# “And” between values parts separate entries of the source, which are not always exact repeats. Equal entries are not always repeated.
# What was measured:
# [1] = Liver S9 stability and conversion to EFdA; assay type: in vitro ADME, human; conditions: for half-life at 1 µM: human liver S9, 37° C.
# Method: Intermediate solution: Dilute 5 μL of compounds or controls (7-ethoxycoumarin) from stock solution (10 mM) with 495 μL MeOH (Conc.: 100 μM, 1% DMSO, 99% MeOH). Stop solution: Cold ACN (including 100 ng/mL Tolbutamide and Labetalol as internal standard). Add 2 μL test compound or control working solution/well to all plates (T0, T5, T10, T20, T30, T60, NCF60) except matrix blank. Add 600 μL/well stop solution (cold in 4° C., including 100 ng/mL Tolbutamide/100 ng/mL Labetalol) to terminate the TO plate, then put it on ice. Dispense 840 μL/well S9 solution to 96-well plate as reservoir according to plate map. Then add 100 μL/well to every plate by Apricot. Incubate S9 solution and compound at 37° C. for about 10 min except NCF60 and TO. After adding S9 solution and 98 μLPB buffer to NCF60, incubate at 37° C. without pre-warming, start timer 1. After 60 min, add 600 μL/well stop solution to terminate the reaction. After pre-warming, dispense 760 μL/well cofactor solution to 96-well plate as reservoir according to plate map. Then add 98 μL/well to every plate by Apricot to start reaction. Incubate at 37° C., start timer 2, Add 600 μL/well stop solution (cold in 4° C., including 100 ng/mL Tolbutamide and Labetalol) to terminate the reaction. Samples are centrifuged at 4000 rpm for 20 min. While centrifuging, load 8×new 96-well plate with 300 μL HPLC water, then transfer 100 μL supernatant, mix with water for LC/MS/MS, transferred to Bioanalytical Services for LC-MS/MS analysis. Use equation of first order kinetics to calculate t1/2 and CL: Equation of first order kinetics: […]
# [2] = Plasma stability and conversion to EFdA; conditions: for half-life at 2 µM: human, plasma, pH 7.4
# Method: The pooled frozen plasma was thawed in a water bath at 37° C. prior to experiment. Plasma was centrifuged at 4000 rpm for 5 min and the clots were removed if any. The pH will be adjusted to 7.4±0.1 if required.
# Preparation of test compounds and positive control (propantheline bromide): 1 mM intermediate solution was prepared by diluting 10 μL of the stock solution with 90 μL MeOH; 1 mM intermediate of positive control Propantheline was prepared by diluting 10 μL of the stock solution with 90 μL ultrapure water. 100 μM dosing solution was prepared by diluting 20 μL of the intermediate solution (1 mM) with 180 μL MeOH. 98 μL of blank plasma was spiked with 2 μL of dosing solution (100 μM) to achieve 2 μM of the final concentration in duplicate and samples were incubated at 37° C. in a water bath. At each time point (0, 10, 30, 60 and 120 min), […] of stop solution (0.1% FA in MeOH containing 200 ng/mL tolbutamide and 200 ng/mL Labetalol) was added to precipitate protein and mixed thoroughly. Centrifuged sample plates at 4,000 rpm for 10 min. An aliquot of supernatant (100 μL) was transferred from each well to another plates.
# Data analysis: The % remaining of test compound after incubation in plasma was calculated using following equation: % Remaining=100×(PAR at appointed incubation time/PAR at T0 time) where PAR is the peak area ratio of analyte versus internal standard (IS) (LC/MS/MS mobile phase condition: 0.1% Formic Acid in Water/0.1% Formic Acid in Acetonitrile. The appointed incubation time points are TO (0 min), Tn (n=0, 10, 30, 60, 120 min). Liver S9 Stability
# [3] = Plasma exposures following oral administration to beagle dogs; conditions: EFdA PO 5 mg/kg
SMILES,Stability in Human Liver S9 Formation of EFdA [1],half-life at 1 µM [1] [min],Stability in Human Plasma Formation of EFdA [2],half-life at 2 µM [2] [min],further results
"C#C[C@]1(COC(=O)NCCN(C)Cc2oc(=O)oc2C)O[C@@H](n2cnc3c(N)nc(F)nc32)C[C@@H]1O [Formula 7-A, ((2R,3S,5R)-5-(6-amino-2-fluoro-9H-purin-9-yl)-2-ethynyl-3-hydroxytetrahydrofuran-2-yl)methyl (2-(methyl((5-methyl-2-oxo-1,3-dioxol-4-yl)methyl)amino)ethyl)carbamate]",No,< 50,No,50 to 200,
"C#C[C@]1(COC(=O)NC(C)C)O[C@@H](n2cnc3c(N)nc(F)nc32)C[C@@H]1O [Formula 2-A, ((2R,3S,5R)-5-(6-amino-2-fluoro-9H-purin-9-yl)-2-ethynyl-3-hydroxytetrahydrofuran-2-yl)methyl isopropylcarbamate]",No,50 to 200,No,> 200,
"C#C[C@]1(COC(=O)OCc2oc(=O)oc2C)O[C@@H](n2cnc3c(N)nc(F)nc32)C[C@@H]1OC(=O)OCc1oc(=O)oc1C [Formula 4-C, ((2R,3S,5R)-5-(6-amino-2-fluoro-9H-purin-9-yl)-2-ethynyl-3-((((5-methyl-2-oxo-1,3-dioxol-4-yl)methoxy)carbonyl)oxy)tetrahydrofuran-2-yl)methyl ((5-methyl-2-oxo-1,3-dioxol-4-yl)methyl) carbonate]",Yes,< 50,Yes,< 50,Conversion to the target drug (EFdA) in liver S9 assay [1]: converted to the target drug efficiently; Conversion to the target drug (EFdA) in human plasma assay [2]: converted to the target drug efficiently
"C#C[C@]1(COC(=O)NC)O[C@@H](n2cnc3c(N)nc(F)nc32)C[C@@H]1O [Formula 5-A, ((2R,3S,5R)-5-(6-amino-2-fluoro-9H-purin-9-yl)-2-ethynyl-3-hydroxytetrahydrofuran-2-yl)methyl methylcarbamate]",No,50 to 200,No,> 200,
"C#C[C@]1(CO)O[C@@H](n2cnc3c(N)nc(F)nc32)C[C@@H]1O [Formula T-1A, (2R,3S,5R)-5-(6-amino-2-fluoro-9H-purin-9-yl)-2-ethynyl-2-(hydroxymethyl)tetrahydrofuran-3-ol, reference compound]",,,,,"EFdA Concentrations in Dog Plasma ([3]; 0.250 hrs, individual animals, 5 mg/kg): 333 ng/mL and 276 ng/mL; EFdA Concentrations in Dog Plasma ([3]; 0.500 hrs, individual animals, 5 mg/kg): 299 ng/mL and 280 ng/mL; EFdA Concentrations in Dog Plasma ([3]; 1.00 hrs, individual animals, 5 mg/kg): 353 ng/mL and 361 ng/mL; EFdA Concentrations in Dog Plasma ([3]; 2.00 hrs, individual animals, 5 mg/kg): 212 ng/mL and 143 ng/mL; EFdA Concentrations in Dog Plasma ([3]; 4.00 hrs, individual animals, 5 mg/kg): 12.6 ng/mL and 17.9 ng/mL and 6.30 ng/mL; EFdA Concentrations in Dog Plasma ([3]; 6.00 hrs, individual animals): BQL; EFdA Concentrations in Dog Plasma ([3]; 8.00 hrs, individual animals): BQL; EFdA Concentrations in Dog Plasma ([3]; 12.0 hrs, individual animals): BQL; EFdA Concentrations in Dog Plasma ([3]; 24.0 hrs, individual animals): BQL; concentration at 0.25 h ([3]; male, beagle, dog, in vivo, po, 5 mg/kg, EFdA Concentrations in Dog Plasma, 0.250 hrs, Mean): 355 ng/mL; concentration at 0.25 h ([3]; male, beagle, dog, in vivo, po, 5 mg/kg, EFdA Concentrations in Dog Plasma, 0.250 hrs, individual animals): 456 ng/mL; concentration at 0.5 h ([3]; male, beagle, dog, in vivo, po, 5 mg/kg, EFdA Concentrations in Dog Plasma, 0.500 hrs, Mean): 323 ng/mL; concentration at 0.5 h ([3]; male, beagle, dog, in vivo, po, 5 mg/kg, EFdA Concentrations in Dog Plasma, 0.500 hrs, individual animals): 391 ng/mL; concentration at 1 h ([3]; male, beagle, dog, in vivo, po, 5 mg/kg, EFdA Concentrations in Dog Plasma, 1.00 hrs, Mean): 361 ng/mL; concentration at 1 h ([3]; male, beagle, dog, in vivo, po, 5 mg/kg, EFdA Concentrations in Dog Plasma, 1.00 hrs, individual animals): 369 ng/mL; concentration at 2 h ([3]; male, beagle, dog, in vivo, po, 5 mg/kg, EFdA Concentrations in Dog Plasma, 2.00 hrs, Mean): 189 ng/mL; concentration at 2 h ([3]; male, beagle, dog, in vivo, po, 5 mg/kg, EFdA Concentrations in Dog Plasma, 2.00 hrs, individual animals): 211 ng/mL; concentration at 4 h ([3]; male, beagle, dog, in vivo, po, 5 mg/kg, EFdA Concentrations in Dog Plasma, 4.00 hrs, Mean): 12.3 ng/mL"
"C#C[C@]1(CO)O[C@@H](n2cnc3c(NCc4oc(=O)oc4C)nc(F)nc32)C[C@@H]1O [Formula 6-A, 4-(((9-((2R,4S,5R)-5-ethynyl-4-hydroxy-5-(hydroxymethyl)tetrahydrofuran-2-yl)-2-fluoro-9H-purin-6-yl)amino)methyl)-5-methyl-1,3-dioxol-2-one]",Yes,< 50,No,< 50,Conversion to the target drug (EFdA) in liver S9 assay [1]: converted to the target drug efficiently
"C#C[C@]1(CO)O[C@@H](n2cnc3c(NC(=O)OC(C)C)nc(F)nc32)C[C@@H]1O [Formula 3-A, isopropyl (9-((2R,4S,5R)-5-ethynyl-4-hydroxy-5-(hydroxymethyl)tetrahydrofuran-2-yl)-2-fluoro-9H-purin-6-yl)carbamate]",No,50 to 200,No,> 200,
